The record followed here is ChEMBL document CHEMBL1139487, “Discovery of corticotropin releasing factor 2 receptor selective sauvagine analogues for treatment of skeletal muscle atrophy” (J Med Chem, 2005).

What is called EC50 is the midpoint of the concentration-response curve. High values mean a less potent agent, low ones a more potent agent.

Square brackets hold non-standard residues; d marks the D form. Peptide text beside a SMILES is read from it. 1Nal = N[C@@H](Cc1cccc2ccccc12)C(=O)O; 2Nal = N[C@@H](Cc1ccc2ccccc2c1)C(=O)O; pGlu = O=C1CC[C@@H](C(=O)O)N1

Experiment [1] deals with Corticotropin-releasing factor receptor 2 (Mus musculus, UniProt Q60748). The experiment in a line: In vitro effective concentration for mouse corticotropin releasing factor 2 receptor.
Corticotropin-releasing factor receptor 2, sequence (Q60748 whole entry): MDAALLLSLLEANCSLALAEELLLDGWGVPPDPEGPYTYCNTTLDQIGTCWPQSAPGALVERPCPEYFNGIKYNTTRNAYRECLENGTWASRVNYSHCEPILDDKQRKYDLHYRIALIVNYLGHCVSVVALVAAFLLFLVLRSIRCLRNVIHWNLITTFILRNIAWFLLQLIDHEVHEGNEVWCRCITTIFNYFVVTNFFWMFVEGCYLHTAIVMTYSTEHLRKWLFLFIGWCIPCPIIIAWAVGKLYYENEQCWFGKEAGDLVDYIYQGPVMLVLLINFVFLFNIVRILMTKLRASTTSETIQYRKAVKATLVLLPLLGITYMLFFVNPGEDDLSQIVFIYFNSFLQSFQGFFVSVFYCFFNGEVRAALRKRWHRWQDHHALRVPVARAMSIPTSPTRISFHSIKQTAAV
In experiment [2] the target is T1, Corticotropin-releasing factor receptor 1 (Mus musculus, UniProt P35347).
T1 sequence (P35347 whole entry): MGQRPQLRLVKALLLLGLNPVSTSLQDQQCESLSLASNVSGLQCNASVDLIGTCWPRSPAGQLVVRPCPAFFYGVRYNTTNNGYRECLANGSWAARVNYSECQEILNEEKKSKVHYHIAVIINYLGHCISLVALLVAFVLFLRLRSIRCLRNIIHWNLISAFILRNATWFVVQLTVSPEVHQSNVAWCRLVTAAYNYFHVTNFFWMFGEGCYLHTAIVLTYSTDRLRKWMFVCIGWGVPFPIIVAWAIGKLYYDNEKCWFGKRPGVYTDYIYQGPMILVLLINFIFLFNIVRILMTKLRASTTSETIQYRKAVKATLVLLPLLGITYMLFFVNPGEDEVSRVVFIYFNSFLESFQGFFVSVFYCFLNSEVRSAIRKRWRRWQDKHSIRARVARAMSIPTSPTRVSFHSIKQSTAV
The experiment in a line: In vitro effective concentration for mouse corticotropin releasing factor 1 receptor.

On to `CC[C@H](C)[C@H](NC(=O)[C@@H](NC(=O)[C@H](CC(=O)O)NC(=O)[C@H](CC(C)C)NC(=O)[C@H](CC(C)C)NC(=O)[C@H](CC(C)C)NC(=O)[C@H](CCCNC(=N)N)NC(=O)[C@H](CC(N)=O)NC(=O)[C@H](CC(N)=O)NC(=O)[C@H](C)NC(=O)[C@H](C)NC(=O)[C@H](CCC(N)=O)NC(=O)[C@H](CCC(N)=O)NC(=O)[C@H](CCCCN)NC(=O)[C@H](CCC(=O)O)NC(=O)[C@H](CCCCN)NC(=O)[C@H](CCC(=O)O)NC(=O)[C@H](CCC(N)=O)NC(=O)[C@H](CCCCN)NC(=O)[C@H](CCC(=O)O)NC(=O)[C@@H](NC(=O)[C@H](CCC(=O)O)NC(=O)[C@@H](NC(=O)[C@H](CCSC)NC(=O)[C@H](CCCCN)NC(=O)[C@H](CCCNC(=N)N)NC(=O)[C@H](CC(C)C)NC(=O)[C@H](CC(C)C)NC(=O)[C@H](Cc1cccc2ccccc12)NC(=O)[C@H](CCC(N)=O)NC(=O)[C@@H]1CCCN1C(=O)[C@H](CC(C)C)NC(=O)[C@H](CC(=O)O)NC(=O)[C@@H](NC(=O)[C@H](CO)NC(=O)[C@@H](NC(=O)[C@@H]1CCCN1C(=O)[C@@H]1CCCN1C(=O)CNC(=O)[C@@H]1CCC(=O)N1)[C@@H](C)CC)[C@@H](C)CC)[C@@H](C)CC)[C@@H](C)CC)[C@@H](C)O)C(=O)O` ([pGlu]GPPISIDLPQ[1Nal]LLRKMIEIEKQEKEKQQAANNRLLLDTI-OH), for which the EC50 turned out to be 14.1 nM in experiment [1] and 367 nM in experiment [2].

`CC[C@H](C)[C@H](NC(=O)[C@@H](NC(=O)[C@H](CC(=O)O)NC(=O)[C@H](CC(C)C)NC(=O)[C@H](CC(C)C)NC(=O)[C@H](CC(C)C)NC(=O)[C@H](CCCNC(=N)N)NC(=O)[C@H](CC(N)=O)NC(=O)[C@H](CC(N)=O)NC(=O)[C@H](C)NC(=O)[C@H](C)NC(=O)[C@H](CCC(N)=O)NC(=O)[C@H](CCC(N)=O)NC(=O)[C@H](CCCCN)NC(=O)[C@H](CCC(=O)O)NC(=O)[C@H](CCCCN)NC(=O)[C@H](CCC(=O)O)NC(=O)[C@H](CCC(N)=O)NC(=O)[C@H](CCCCN)NC(=O)[C@H](CCC(=O)O)NC(=O)[C@@H](NC(=O)[C@H](CCC(=O)O)NC(=O)[C@@H](NC(=O)[C@H](CCSC)NC(=O)[C@H](CCCCN)NC(=O)[C@H](CCCNC(=N)N)NC(=O)[C@H](CC(C)C)NC(=O)[C@H](CC(C)C)NC(=O)[C@H](Cc1ccc2ccccc2c1)NC(=O)[C@H](C)NC(=O)[C@@H]1CCCN1C(=O)[C@H](CC(C)C)NC(=O)[C@H](CC(=O)O)NC(=O)[C@@H](NC(=O)[C@H](CO)NC(=O)[C@@H](NC(=O)[C@@H]1CCCN1C(=O)[C@@H]1CCCN1C(=O)CNC(=O)[C@@H]1CCC(=O)N1)[C@@H](C)CC)[C@@H](C)CC)[C@@H](C)CC)[C@@H](C)CC)[C@@H](C)O)C(=O)O` ([pGlu]GPPISIDLPA[2Nal]LLRKMIEIEKQEKEKQQAANNRLLLDTI-OH): the EC50 in experiment [1] stood at 13.3 nM; in experiment [2], 582 nM.

`CC[C@H](C)[C@H](NC(=O)[C@@H](NC(=O)[C@H](CC(=O)O)NC(=O)[C@H](CC(C)C)NC(=O)[C@H](CC(C)C)NC(=O)[C@H](CC(C)C)NC(=O)[C@H](CCCNC(=N)N)NC(=O)[C@H](CC(N)=O)NC(=O)[C@H](CC(N)=O)NC(=O)[C@H](C)NC(=O)[C@H](C)NC(=O)[C@H](CCC(N)=O)NC(=O)[C@H](CCC(N)=O)NC(=O)[C@H](CCCCN)NC(=O)[C@H](CCC(=O)O)NC(=O)[C@H](CCCCN)NC(=O)[C@H](CCC(=O)O)NC(=O)[C@H](CCC(N)=O)NC(=O)[C@H](CCCCN)NC(=O)[C@H](CCC(=O)O)NC(=O)[C@@H](NC(=O)[C@H](CCC(=O)O)NC(=O)[C@@H](NC(=O)[C@H](CCSC)NC(=O)[C@H](CCCCN)NC(=O)[C@H](CCCNC(=N)N)NC(=O)[C@H](CC(C)C)NC(=O)[C@H](CC(C)C)NC(=O)[C@H](CC(C)C)NC(=O)[C@@H](NC(=O)[C@@H]1CCCN1C(=O)[C@H](CC(C)C)NC(=O)[C@H](CC(=O)O)NC(=O)[C@@H](NC(=O)[C@H](CO)NC(=O)[C@@H](NC(=O)[C@@H]1CCCN1C(=O)[C@@H]1CCCN1C(=O)CNC(=O)[C@@H]1CCC(=O)N1)[C@@H](C)CC)[C@@H](C)CC)[C@@H](C)O)[C@@H](C)CC)[C@@H](C)CC)[C@@H](C)O)C(=O)O`: the EC50 in experiment [1] was 20.6 nM; in experiment [2], greater than 1000 nM.

`CC[C@H](C)[C@H](NC(=O)[C@@H](NC(=O)[C@H](CC(=O)O)NC(=O)[C@H](CC(C)C)NC(=O)[C@H](CC(C)C)NC(=O)[C@H](CC(C)C)NC(=O)[C@H](CCCNC(=N)N)NC(=O)[C@H](CC(N)=O)NC(=O)[C@H](CC(N)=O)NC(=O)[C@H](C)NC(=O)[C@H](C)NC(=O)[C@H](CCC(N)=O)NC(=O)[C@H](CCC(N)=O)NC(=O)[C@H](CCCCN)NC(=O)[C@H](CCC(=O)O)NC(=O)[C@H](CCCCN)NC(=O)[C@H](CCC(=O)O)NC(=O)[C@H](CCC(N)=O)NC(=O)[C@H](CCCCN)NC(=O)[C@H](CCC(=O)O)NC(=O)[C@@H](NC(=O)[C@H](CCC(=O)O)NC(=O)[C@@H](NC(=O)[C@H](CCSC)NC(=O)[C@H](CCCCN)NC(=O)[C@H](CCCNC(=N)N)NC(=O)[C@H](CC(C)C)NC(=O)[C@H](CC(C)C)NC(=O)[C@H](CCC(N)=O)NC(=O)[C@H](Cc1ccc(O)cc1)NC(=O)[C@@H]1CCCN1C(=O)[C@H](CC(C)C)NC(=O)[C@H](CC(=O)O)NC(=O)[C@@H](NC(=O)[C@H](CO)NC(=O)[C@@H](NC(=O)[C@@H]1CCCN1C(=O)[C@@H]1CCCN1C(=O)CNC(=O)[C@@H]1CCC(=O)N1)[C@@H](C)CC)[C@@H](C)CC)[C@@H](C)CC)[C@@H](C)CC)[C@@H](C)O)C(=O)O`: the EC50 in experiment [1] is 8.6 nM; in experiment [2], 404 nM.

`CC[C@H](C)[C@H](NC(=O)[C@@H](NC(=O)[C@H](CC(=O)O)NC(=O)[C@H](CC(C)C)NC(=O)[C@H](CC(C)C)NC(=O)[C@H](CC(C)C)NC(=O)[C@H](CCCNC(=N)N)NC(=O)[C@H](CC(N)=O)NC(=O)[C@H](CC(N)=O)NC(=O)[C@H](C)NC(=O)[C@H](C)NC(=O)[C@H](CCC(N)=O)NC(=O)[C@H](CCC(N)=O)NC(=O)[C@H](CCCCN)NC(=O)[C@H](CCC(=O)O)NC(=O)[C@H](CCCCN)NC(=O)[C@H](CCC(=O)O)NC(=O)[C@H](CCC(N)=O)NC(=O)[C@H](CCCCN)NC(=O)[C@H](CCC(=O)O)NC(=O)[C@@H](NC(=O)[C@H](CCC(=O)O)NC(=O)[C@@H](NC(=O)[C@H](CCSC)NC(=O)[C@H](CCCCN)NC(=O)[C@H](CCCNC(=N)N)NC(=O)[C@H](CC(C)C)NC(=O)[C@H](CC(C)C)NC(=O)CNC(=O)[C@H](CC(C)C)NC(=O)[C@@H]1CCCN1C(=O)[C@H](CC(C)C)NC(=O)[C@H](CC(=O)O)NC(=O)[C@@H](NC(=O)[C@H](CO)NC(=O)[C@@H](NC(=O)[C@@H]1CCCN1C(=O)[C@@H]1CCCN1C(=O)CNC(=O)[C@@H]1CCC(=O)N1)[C@@H](C)CC)[C@@H](C)CC)[C@@H](C)CC)[C@@H](C)CC)[C@@H](C)O)C(=O)O` ([pGlu]GPPISIDLPLGLLRKMIEIEKQEKEKQQAANNRLLLDTI-OH): the figures for the EC50 in experiment [1] and in experiment [2] were 21.6 nM and 312 nM, respectively.

As to `CC[C@H](C)[C@H](NC(=O)[C@@H](NC(=O)[C@H](CC(=O)O)NC(=O)[C@H](CC(C)C)NC(=O)[C@H](CC(C)C)NC(=O)[C@H](CC(C)C)NC(=O)[C@H](CCCNC(=N)N)NC(=O)[C@H](CC(N)=O)NC(=O)[C@H](CC(N)=O)NC(=O)[C@H](C)NC(=O)[C@H](C)NC(=O)[C@H](CCC(N)=O)NC(=O)[C@H](CCC(N)=O)NC(=O)[C@H](CCCCN)NC(=O)[C@H](CCC(=O)O)NC(=O)[C@H](CCCCN)NC(=O)[C@H](CCC(=O)O)NC(=O)[C@H](CCC(N)=O)NC(=O)[C@H](CCCCN)NC(=O)[C@H](CCC(=O)O)NC(=O)[C@@H](NC(=O)[C@H](CCC(=O)O)NC(=O)[C@@H](NC(=O)[C@H](CCSC)NC(=O)[C@H](CCCCN)NC(=O)[C@H](CCCNC(=N)N)NC(=O)[C@H](CC(C)C)NC(=O)[C@H](CC(C)C)NC(=O)[C@H](Cc1ccc(O)cc1)NC(=O)[C@H](CCC(N)=O)NC(=O)[C@@H]1CCCN1C(=O)[C@H](CC(C)C)NC(=O)[C@H](CC(=O)O)NC(=O)[C@@H](NC(=O)[C@H](CO)NC(=O)[C@@H](NC(=O)[C@@H]1CCCN1C(=O)[C@@H]1CCCN1C(=O)CNC(=O)[C@@H]1CCC(=O)N1)[C@@H](C)CC)[C@@H](C)CC)[C@@H](C)CC)[C@@H](C)CC)[C@@H](C)O)C(=O)O`, the EC50 in experiment [1] worked out at 10.7 nM; in experiment [2], 325 nM.

In the case of `CC[C@H](C)[C@H](NC(=O)[C@@H](NC(=O)[C@H](CC(=O)O)NC(=O)[C@H](CC(C)C)NC(=O)[C@H](CC(C)C)NC(=O)[C@H](CC(C)C)NC(=O)[C@H](CCCNC(=N)N)NC(=O)[C@H](CC(N)=O)NC(=O)[C@H](CC(N)=O)NC(=O)[C@H](C)NC(=O)[C@H](C)NC(=O)[C@H](CCC(N)=O)NC(=O)[C@H](CCC(N)=O)NC(=O)[C@H](CCCCN)NC(=O)[C@H](CCC(=O)O)NC(=O)[C@H](CCCCN)NC(=O)[C@H](CCC(=O)O)NC(=O)[C@H](CCC(N)=O)NC(=O)[C@H](CCCCN)NC(=O)[C@H](CCC(=O)O)NC(=O)[C@@H](NC(=O)[C@H](CCC(=O)O)NC(=O)[C@@H](NC(=O)[C@H](CCSC)NC(=O)[C@H](CCCCN)NC(=O)[C@H](CCCNC(=N)N)NC(=O)[C@H](CC(C)C)NC(=O)[C@H](CC(C)C)NC(=O)[C@H](Cc1ccc(O)cc1)NC(=O)[C@H](CC(C)C)NC(=O)[C@@H]1CCCN1C(=O)[C@H](CC(C)C)NC(=O)[C@H](CC(=O)O)NC(=O)[C@@H](NC(=O)[C@H](CO)NC(=O)[C@@H](NC(=O)[C@@H]1CCCN1C(=O)[C@@H]1CCCN1C(=O)CNC(=O)[C@@H]1CCC(=O)N1)[C@@H](C)CC)[C@@H](C)CC)[C@@H](C)CC)[C@@H](C)CC)[C@@H](C)O)C(=O)O` ([pGlu]GPPISIDLPLYLLRKMIEIEKQEKEKQQAANNRLLLDTI-OH), the figures for the EC50 in experiment [1] and in experiment [2] were 4.3 nM and 67.9 nM, respectively.
